{"source": "patent US20210055311A1", "about": "“SCREENING METHOD FOR ESTROGENIC AND ANTI-ESTROGENIC ACTIVITY” (BUNDESINSTITUT FÜR RISIKOBEWERTUNG, priority 2018, published 2021)", "assay_type_in_all_cases": "cell-based, human", "key": {"[1]": {"system": "MCF7/vBOS cells (DSM ACC3321)", "assay": "Formation of discontinuous basolateral adherens junctions upon anti-estrogen exposure (E-Cadherin immunofluorescence)"}, "[2]": {"system": "MCF-7/vBOS breast cancer cells", "assay": "Cell motility by manual tracking in confluent monolayer after scratch", "description": "FIG. 10 illustrates that inhibition of ERα signaling increases tissue stability by modulating cell mechanics and cell motility. (A) Quantification of cell stiffness (Apparent elastic (Young's) modulus) by atomic force microscopy (AFM) indentation measurements on cells treated with fulvestrant for 48 hours (ERepl.1=0.7141±0.1193 kPa; ERepl.2=0.651±0.1407 kPa; ERepl.3=0.5938±0.1564 kPa; mean±s.d.) compared to solvent control cells (, ERepl.1=0.4841±0.1194 kPa; ERepl.2=0.4088±0.1513 kPa; ERepl.3=0.4660±0.1189 kPa). Biological replicates, n=3; 50-60 cells per condition. Boxes, 25th, 50th (median), and 75th percentiles. Whiskers, 10th and 90th percentiles. Cross, mean for each group. Statistical testing, Mann-Whitney tests; **, p values<0.01. (B) Quantification of cell motility (velocity) by manual tracking of cells treated with fulvestrant for 48 hours (VRepl.1=0.0613±0.0176 μm/min; VRepl.2=0.0553±0.0157 μm/min; VRepl.3=0.051±0.014 μm/min; mean±s.d.) compared to solvent control cells (VRepl.1=0.113±0.0237 μm/min; VRepl.2=0.0757±0.023 μm/min; VRepl.3=0.0827±0.0174 μm/min). Biological replicates, n=3; 3 fields with 10 cells each per replicate and condition were imaged every 10 minutes over the course of 16 h. Boxes, 25th, 50th (median), and 75th percentiles. Whiskers, 10th and 90th percentiles. Cross, mean for each group. Statistical testing, Mann-Whitney tests; **, p values<0.01.\nGiven that anti-estrogens increase adherens junction stability and cell rigidity, the inventors asked whether cell motility was likewise affected."}, "MCF-7/ACC115 cells": {"system": "MCF-7/ACC115 cells", "assay": "Adherens junction morphology upon fulvestrant in MCF-7/ACC115 cells", "conditions": "10^−8 M, 48 h", "description": "Next, the inventors tried to reproduce the effects obtained with the cells as deposited under DSM ACC3321 with other conventional MCF-7 cells, namely MCF-7/BOS provided by Prof. Ana Soto (Tufts University School of Medicine, Boston, Mass., USA) and the MCF-7/ACC115 clone obtained from the Leibniz-Institut DSMZ-Deutsche Sammlung von Mikroorganismen and Zellkulturen GmbH (Braunschweig, Germany).\nBriefly, the MCF-7 cells were seeded and grown on glass coverslips in multi-well tissue culture plates (TPP) for 24 h to reach near 100% confluence and then treated for at least 48 h with 0.1% EtOH (solvent control) and the ERα antagonist fulvestrant (Sigma-Aldrich, CAS-No. 129453-61-8) at a concentration of 10^−8 M. During experiments, medium was exchanged on a daily basis. All experiments were performed at 37° C. with 5% CO2 in reduced-serum medium (phenol red-free DMEM (Gibco), 5% FBS (Biochrom, S 0615, LOT1353 W), 1% glutamine, 100 μg/ml streptomycin/100 U/ml penicillin (Biochrom))."}}, "data": [{"smiles": "C[C@]12CC[C@@H]3c4ccc(O)cc4C[C@@H](CCCCCCCCC[S+]([O-])CCCC(F)(F)C(F)(F)F)[C@H]3[C@@H]1CC[C@@H]2O", "note": "(stereo partly drawn) [Fulvestrant]", "values": [{"measurement": "change in adherens junctions morphology on staining β-Catenin, α-Catenin, p120-Catenin or cortical actin cytoskeleton", "setting": "[1]; 10^−8 M, at least 48 h", "value": "also observable"}, {"measurement": "manifestation of phenotype after short exposure", "setting": "[1]; exposure for only 2 hours, read after 48 hours in media w/o fulvestrant", "value": "lead to manifestation of the discontinuous basolateral adherens junctions phenotype"}, {"measurement": "stability of discontinuous adherens junctions independent of the presence of fulvestrant", "setting": "[1]; fulvestrant 24 hours, then 24 or 48 hours in fulvestrant-free medium", "value": "at least 48"}, {"measurement": "cell motility (velocity), Repl.1", "setting": "[2]; treated 48 hours, mean±s.d., replicate 1", "value": "0.0613±0.0176", "unit": "μm/min"}, {"measurement": "cell motility (velocity), Repl.2", "setting": "[2]; treated 48 hours, mean±s.d., replicate 2", "value": "0.0553±0.0157", "unit": "μm/min"}, {"measurement": "cell motility (velocity), Repl.3", "setting": "[2]; treated 48 hours, mean±s.d., replicate 3", "value": "0.051±0.014", "unit": "μm/min"}, {"measurement": "velocity of cells", "setting": "[2]; vs solvent control", "value": "significantly reduced"}, {"measurement": "length of cell trajectories", "setting": "[2]; vs solvent control, data not shown", "value": "significantly reduced"}, {"measurement": "adherens junctions morphology in absence and presence of fulvestrant", "setting": "MCF-7/ACC115 cells", "value": "same continuous adherens junctions morphology"}]}]}
